The record followed here is patent publication US20050054637A1, “Substituted piperazine cyclohexane carboxilic acid amides and the use thereof” (priority 2001, published 2005).

The subject of assay [1] is adenosine uptake in rabbit erythrocytes. Briefly: Inhibition of the adenosine uptake in rabbit erythrocytes (functional adenosine-uptake test). The following applies: Oryctolagus cuniculus, 0.25 h; rabbit erythrocyte preparation, 30° C., adenosine remaining 15 min after addition of adenosine. The class given is cell-based. The protocol: 1. Inhibition of the Adenosine Uptake in Rabbit Erythrocytes by the Compounds According to the Invention
The capability of substnaces to influence the adenosine-uptake system is investigated by determining the inhibitory effect of the substances on functional adenosine uptake.
For the functional adenosine-uptake test, an erythrocyte preparation from rabbit blood is used. The blood is drawn intravenously using citrate (3 ml Monovette 9NC from Sarstedt) as anticoagulant. The blood is centrifuged at 3000 g for 5 min and the erythrocytes are suspended in 10 mM 3-(N-morpholino)propanesulphonic acid buffer (MOPS)/0.9% aqueous sodium chloride solution pH 7.4. The suspension is diluted to one hundredth of the original blood volume. In each case, 990 μl of the suspension are admixed with 10 μl of a suitable concentration of the substance to be examined, and the mixture is incubated at 30° C. for 5 min. 5 μl of a 4 mM adenosine solution are then added, and the mixture is incubated at 30° C. for another 15 min. The samples are then centrifuged at 3000 g for 5 min and in each case 700 μl of the supernatant are mixed with 28 μl of 70% strength HClO4, allowed to stand in an ice bath for 30 min and centrifuged at 16 000 g for 3 min, and 350 μl of the sample are neutralized using 30 μl of 5 N NaOH. 50 μl of the sample are applied to a column (Waters Symmetry C18 5 μm, 3.9×150 mm). A Spherisorb ODS II 5 μm, 4.6×10 mm column is used as precolumn The mobile phase used is a gradient of 50 mM KH2PO4/5 mM tributylamine pH 7 (mobile phase A) and a mixture of mobile phase A/methanol 1:1 (mobile phase B). The gradient is from 10% to 40% B, at a flow rate of 0.5 ml/min. The adenosine which is present is quantified by its absorption at 260 nm, as are the hypoxanthine and inosine formed.
Table 1 below lists the IC50 values obtained using this test: […]

The subject of another assay is mongrel dogs. Briefly: In vivo test model for adenosine-uptake inhibitors: reactive hyperaemia after coronary occlusion in anaesthetized dogs. More on the design: species or system dog. The following applies: 10 μg/kg i.v., reactive hyperaemia after four-minute occlusion. As to the method:
2. In vivo Test Model for Testing Adenosine-Uptake Inhibitors
Adult mongrel dogs (body weight 20-30 kg) are initially anaesthetized using a combination of trapanal 500 mg and alloferin 55 mg. Anaesthesia is maintained by infusion of a mixture of fentanyl 0.072 mg/kg, alloferin 0.02 mg/kg and dihydrobenzpyridyl 0.25 mg/kg×min. The animals are intubated and ventilated with a mixture of O2/N2O (ratio 1:5) using a Dräger ventilation pump at 16 breaths per min and a volume of 18-24 ml/kg. The body temperature is maintained at 38° C.±0.1° C. Arterial blood pressure is measured via a catheter in the femoral artery. A thoractomy is carried out on the left side at the fifth intercostal space. The lung is pushed back and fixed and a cut is made in the pericardium. A proximal section of the LAD distally to the first diagonal branch is exposed and a calibrated electromagnetic flow sensor (from Scalar) is placed around the vessel and attached to a flow meter (from Scalar, model MDL 1401). Distally to the flow sensor, a mechanical occluder is attached such that there are no branches in between flow sensor and occluder.
Using a catheter in the femoral vein, blood samples are taken and substances (10 μg/kg i.v.) are administered. A peripheral ECG is recorded using needles which are fixed subcutaneously. A microtip pressure manometer (from Millar, model PC-350) is pushed through the left atrium to measure the pressure in the left ventricle. Measurement of the heart frequency is triggered by the R wave of the ECG. During the entire experiment, the haemodynamic parameters and the coronary flow are recorded using a multi-event recorder.
A four-minute occlusion causes reactive hyperaemia. The difference between the coronary flow under control conditions and the maximum flow during the reactive hyperaemia is measured. The time which is required to achieve half of this maximum flow in the drop is a suitable parameter to assess the reaction hyperaemia.
After a stabilization period of one hour, the experiment is started with a four-minute occlusion. Thirty minutes later, the substance is administered (i.v.) which is, after two minutes, followed by re-occlusion. The reactive hyperaemia after verum and placebo is compared.

One may read the IC50 as the concentration that gives 50% inhibition. Read a high IC50 as a need for much substance. In assay [1], `NC(=O)[C@@H](NC(=O)[C@@H]1CCCC[C@H]1N1CCN(C(=O)c2ccccc2)CC1)c1ccccc1` [Example 1, (1R,2R)-N-[(1S)-2-Amino-2-oxo-1-phenylethyl]-2-(4-benzoyl-1-piperazinyl)cyclo-hexanecarboxamide] yielded an IC50 of 0.03 µM. The “Increase of coronary blood flow in %” value in the assay with mongrel dogs was 258%.

In assay [1], `NC(=O)[C@@H](NC(=O)[C@@H]1CCCC[C@H]1N1CCN(C(=O)c2ccccc2)CC1)c1ccc(F)cc1` [Example 2, (1R,2R)-N-[(1S)-2-Amino-2-oxo-1-(4-fluorophenyl)ethyl]-2-(4-benzoyl-1-piperazin-yl)cyclohexanecarboxamide] registered an IC50 of 0.03 µM.

Compound `NC(=O)[C@@H](NC(=O)[C@@H]1CCCC[C@H]1N1CCN(C(=O)c2n[nH]c3ccccc23)CC1)c1ccccc1` [Example 3, (1R,2R)-N-[(1S)-2-Amino-2-oxo-1-phenylethyl]-2-[4-(1H-indazol-3-ylcarbonyl)-1-piperazinyl]cyclohexanecarboxamide] had an IC50 in assay [1] of 0.03 µM.

In the case of `NC(=O)[C@@H](NC(=O)[C@@H]1CCCC[C@H]1N1CCN(Cc2ccccc2)CC1)c1ccc(F)cc1` [Example 8, (1R,2R)-N-[(1S)-2-Amino-1-(4-fluorophenyl)-2-oxoethyl]-2-(4-benzyl-1-piperazinyl)cyclohexanecarboxamide], in assay [1], the IC50 worked out at 0.08 µM.

With `NC(=O)[C@@H](NC(=O)[C@@H]1CCCC[C@H]1N1CCN(C(=O)c2ccc(F)cc2F)CC1)c1ccccc1` [Example 16, (1R,2R)-N-[(1S)-2-Amino-2-oxo-1-phenylethyl]-2-[4-(2,4-difluorobenzoyl)-1-piperazinyl)cyclohexanecarboxamide], in assay [1], the IC50 is 0.03 µM. Also, in the assay on mongrel dogs, the “Increase of coronary blood flow in %” value is listed as 326%.

`Cc1ccc(C(=O)N2CCN([C@@H]3CCCC[C@H]3C(=O)N[C@H](C(N)=O)c3ccccc3)CC2)s1` [Example 17, (1R,2R)-N-[(1S)-2-Amino-2-oxo-1-phenylethyl]-2-{4-[(5-methyl-2-thienyl)-carbonyl]-1-piperazinyl}cyclohexanecaiboxamide]: the IC50 in assay [1] worked out at 0.02 µM. Besides, the “Increase of coronary blood flow in %” value in the assay with mongrel dogs came out at 250%.

The compound `NC(=O)[C@@H](NC(=O)[C@@H]1CCCC[C@H]1N1CCN(C(=O)c2ccc[nH]2)CC1)c1ccccc1` [Example 18, (1R,2R)-N-[(1S)-2-Amino-2-oxo-1-phenylethyl]-2-{4-[(2-pyrrolyl)carbonyl]-1-piperazinyl}cyclohexanecarboxamide] displayed an IC50 in assay [1] of 0.03 µM. Moreover, the “Increase of coronary blood flow in %” value in the assay with mongrel dogs is 347%.

As to `NC(=O)[C@@H](NC(=O)[C@@H]1CCCC[C@H]1N1CCN(C(=O)OC2CCCC2)CC1)c1ccccc1` [Example 21], in assay [1], the IC50 stood at 0.015 µM.

`NC(=O)[C@@H](NC(=O)[C@@H]1CCCC[C@H]1N1CCN(C(=O)c2ccccc2F)CC1)c1ccccc1` [Example 27]: the IC50 in assay [1] stood at 0.02 µM.

Compound `NC(=O)[C@@H](NC(=O)[C@@H]1CCCC[C@H]1N1CCN(C(=O)c2ccc3c(c2)OCO3)CC1)c1ccccc1` [Example 66] came in with an IC50 in assay [1] of 0.02 µM.
